Patent publication EP0326196A2, “Aqueous pharmaceutical preparation” (AKZO N.V., priority 1988, dated 1989)
In brackets after ≈: the same amount, converted by molar mass. Read-outs that look alike come from different tables or passages of the source.

Tests used:
[1] = Intra ocular pressure on application to the eyes; format: in vivo; conditions: applied to the eyes; contrary to other corticosteroids
[2] = Solubility study of the Steroid in water / aqueous cyclodextrin solutions (phase-solubility, UV/VIS); format: physicochemical
Procedure: The solubility studies were performed according to the method described below which is well known in the litrature. Excess amounts of the Steroid were added to aqueous solutions of 2,6-dimethyl-β-cyclodextrin. These suspensions were shaken at room temperature during 5 days followed by an equilibration period of 3 days at room temperature. Then an aliquot was centrifuged and the supernatant was filtered through a 0,45 µm membrane filter (Millipore: HV4, Millex). The samples were analysed with the Perkin Elmer Lambda 5 UV/VIS spectrophotometer. The absorbance was read and compared with a blanc and standard calibration curve. […] After calculation of the amount of Steroid dissolved, a phase-solubility diagram was constructed by plotting the dissolved amounts of Steroid as a function of the concentration of 2,6-dimethyl-β-cyclodextrin (see Graph).
For comparative purposes the unexpected increase of solubility of the Steroid in water using 2,6-dimethyl-β-cyclodextrin, is compared with other more common cyclodextrins.

[3] = Systemic effect after local administration; format: in vivo; conditions: administered locally

## CCC(=O)[C@@]1(C)[C@H](C)C[C@H]2[C@@H]3CCC4=CC(=O)C=C[C@]4(C)[C@H]3[C@@H](O)C[C@@]21C [Org 6216, 11β-hydroxy-16α,17α,21-trimethyl-▲¹ʼ⁴-pregnadiene-3,20-dione]
[1]
  increase of the intra ocular pressure (I.O.P.): did not increase I.O.P.
[2]
  increase of the solubility (factor): 10.000
[2]; water with 2,6-dimethyl-β-cyclodextrin, in water with 2,6-dimethyl-β-cyclodextrin, room temperature, read-out: Solubility
  solubility: 9000 µg/mL (≈ 24300 µM)
[2]; water with α-cyclodextrin, in water with α-cyclodextrin, room temperature, read-out: Solubility
  solubility: 40 µg/mL (≈ 108 µM)
[2]; water with β-cyclodextrin, in water with β-cylodextrin, room temperature, read-out: Solubility
  solubility: 50 µg/mL (≈ 135 µM)
[2]; water with τ-cyclodextrin, in water with τ-cyclodextrin, room temperature, read-out: Solubility
  solubility: 70 µg/mL (≈ 189 µM)
[2]; water, 2,6-dimethyl-beta-cyclodextrin, 2,6-dimethyl-β-cyclodextrin as solubilizing agent, about 0,28 millimol per ml, read-out: maximal solubility of the Steroid in water
  solubility: 9000 to 10000 µg/mL (≈ 24300 to 27000 µM)
[2]; water, 2,6-dimethyl-beta-cyclodextrin, inclusion complex with 2,6-dimethyl-β-cyclodextrin, read-out: solubility of the Steroid in water
  solubility: ~10000 µg/mL (≈ 27000 µM)
[2]; water, no cyclodextrin, read-out: Solubility without cyclodextrin
  solubility: 0.7 µg/mL (≈ 1.89 µM)
[2]; water, no cyclodextrin, read-out: original solubility in water
  solubility: 0.5 µg/mL (≈ 1.35 µM)
[3]
  systemic effect: did not expose any significant systemic effect
